Measurements: paper PMC9939733 (The Journal of Biological Chemistry, 2023)
Positions count from the first letter of the chain named. Like-named read-outs stand apart in the source and are kept apart here.

Tests used:
Assay type in all cases: biochemical
R132H IDH1 [1] = biological target: T1, R132H IDH1 (Homo sapiens, UniProt O75874, R132H); test: Absorbance assay, variant activity in the presence of equimolar 2OG (inhibition screen); set-up: made in house; host or cells: Escherichia coli BL21(DE3) pLyS
T1 sequence (O75874 whole entry R132H): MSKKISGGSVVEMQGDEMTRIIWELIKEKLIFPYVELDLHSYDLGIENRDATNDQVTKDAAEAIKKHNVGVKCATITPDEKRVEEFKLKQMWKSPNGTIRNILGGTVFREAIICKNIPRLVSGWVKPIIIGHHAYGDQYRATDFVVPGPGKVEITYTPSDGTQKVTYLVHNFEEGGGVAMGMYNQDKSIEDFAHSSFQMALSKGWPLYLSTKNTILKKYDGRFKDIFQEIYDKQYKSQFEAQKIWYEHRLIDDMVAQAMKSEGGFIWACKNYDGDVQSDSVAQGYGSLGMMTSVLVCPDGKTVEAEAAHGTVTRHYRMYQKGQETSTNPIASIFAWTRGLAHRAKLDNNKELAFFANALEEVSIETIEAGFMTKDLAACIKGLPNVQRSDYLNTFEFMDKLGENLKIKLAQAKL
Procedure: (§1) Compounds were dispensed using a CyBio SDW-CW CyBi-Well Simultaneous Pipettor and assay started using a ThermoFisher Multidrop Combi reagent dispenser.
(§2) Reactions were performed as technical quadruplicates.

R172K IDH2 [2] = biological target: T2, R172K IDH2 (Homo sapiens, UniProt P48735, R172K); test: Absorbance assay (NADPH consumption), substrate turnover in the absence of 2OG
T2 construct: made in house; host or cells: Sf21 insect cells (cell pellets prepared at Evotec)
T2 sequence (P48735 40-452 R172K): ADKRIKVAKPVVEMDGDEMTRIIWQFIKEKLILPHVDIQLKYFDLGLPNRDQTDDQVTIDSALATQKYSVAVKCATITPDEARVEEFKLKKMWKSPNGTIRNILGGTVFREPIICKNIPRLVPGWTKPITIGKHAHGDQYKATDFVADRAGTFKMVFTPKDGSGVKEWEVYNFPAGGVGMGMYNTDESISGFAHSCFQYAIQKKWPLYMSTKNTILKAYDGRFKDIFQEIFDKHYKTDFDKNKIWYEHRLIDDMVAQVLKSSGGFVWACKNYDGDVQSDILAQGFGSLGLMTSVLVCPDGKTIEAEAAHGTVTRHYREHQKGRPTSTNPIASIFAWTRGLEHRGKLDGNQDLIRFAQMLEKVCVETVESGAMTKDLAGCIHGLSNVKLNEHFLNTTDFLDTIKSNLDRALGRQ
Procedure: as §1, §2

R140Q IDH2 [3] = biological target: T3, R140Q IDH2 (Homo sapiens, UniProt P48735, R140Q); test: as above
T3 construct: made in house; host or cells: Sf21 insect cells (cell pellets prepared at Evotec)
T3 sequence (P48735 40-452 R140Q): T2 sequence (P48735 40-452 R172K) with R101Q, K133R
Procedure: as §1, §2

R132H IDH1 [4] = biological target: T1, R132H IDH1; test: as above; set-up: made in house; host or cells: Escherichia coli BL21(DE3) pLyS
Procedure: as §1, §2

R172K IDH2 [5] = biological target: T2, R172K IDH2; test: Absorbance assay, variant activity in the presence of equimolar 2OG (inhibition screen)
Procedure: as §1, §2

R140Q IDH2 [6] = biological target: T3, R140Q IDH2; test: as above
Procedure: as §1, §2

WT IDH2 = biological target: T4, WT IDH2 (Homo sapiens, UniProt P48735); test: Absorbance assay, WT activity in the presence of equimolar DL-isocitrate (inhibition)
T4 construct: made in house; host or cells: Sf21 insect cells (cell pellets prepared at Evotec)
T4 sequence (P48735 40-452): T2 sequence (P48735 40-452 R172K) with K133R
Procedure: as §1, §2

WT IDH1 = biological target: T5, WT IDH1 (Homo sapiens, UniProt O75874); test: as above
T5 construct: made in house; host or cells: Escherichia coli BL21(DE3) pLyS
T5 sequence (O75874 whole entry): as the sequence (O75874 whole entry R132H) above, with H132R counted along it
Procedure: as §1, §2

[7] = […] 2OG and […] test compound, 0.03 μM R132H IDH1, 50 μM NADPH
[8] = no 2OG, 1.0 mM test compound, 0.03 μM R172K IDH2, 50 μM NADPH, 2OG = 100
[9] = no 2OG, 6.0 mM test compound, 0.03 μM R140Q IDH2, 50 μM NADPH, 2OG = 100
[10] = no 2OG, […] test compound, 0.03 μM R132H IDH1, 50 μM NADPH, 2OG = 100
[11] = 1.0 mM 2OG and 1.0 mM test compound, 0.03 μM R172K IDH2, 50 μM NADPH
[12] = 6.0 mM 2OG and 6.0 mM test compound, 0.03 μM R140Q IDH2, 50 μM NADPH
[13] = […] isocitrate and […] test compound, 75 μM NADP+, 2.0 nM WT IDH2
[14] = […] isocitrate and […] test compound, 75 μM NADP+, 2.0 nM WT IDH1

| Compound | activity [%] (%-substrate conversion after 20 min incubation) (R132H IDH1 [1]; [7]) | activity [%] (%-substrate conversion after 20 min incubation) (R172K IDH2 [2]; [8]) | activity [%] (%-substrate conversion after 20 min incubation) (R140Q IDH2 [3]; [9]) | activity [%] (%-substrate conversion after 20 min incubation) (R132H IDH1 [4]; [10]) | activity [%] (%-substrate conversion after 20 min incubation) (R172K IDH2 [5]; [11]) | activity [%] (%-substrate conversion after 20 min incubation) (R140Q IDH2 [6]; [12]) | activity [%] (%-substrate conversion after 20 min incubation) (WT IDH2; [13]) | activity [%] (%-substrate conversion after 20 min incubation) (WT IDH1; [14]) | activity [%] (%-substrate conversion after 20 min incubation) (R132H IDH1 [1]) | activity [%] (%-substrate conversion after 20 min incubation) (R172K IDH2 [2]) | activity [%] (%-substrate conversion after 20 min incubation) (R140Q IDH2 [3]) | activity [%] (%-substrate conversion after 20 min incubation) (R132H IDH1 [4]) | activity [%] (%-substrate conversion after 20 min incubation) (R172K IDH2 [5]) | activity [%] (%-substrate conversion after 20 min incubation) (R140Q IDH2 [6]) | activity [%] (%-substrate conversion after 20 min incubation) (WT IDH2) | activity [%] (%-substrate conversion after 20 min incubation) (WT IDH1) |
| --- | --- | --- | --- | --- | --- | --- | --- | --- | --- | --- | --- | --- | --- | --- | --- | --- |
| O=C(O)C(=O)CCc1ccccc1 [2-oxo-4-phenylbutanoic acid] | 90 ± 3 | < 10 | < 10 | < 10 | 96 ± 1 | 98 ± 8 | 96 ± 6 | 94 ± 2 | – | – | – | – | – | – | – | – |
| COC(=O)CC(C)C(=O)OC (racemic) [DL-dimethyl 2-methylsuccinate] | 104 ± 2 | < 10 | < 10 | < 10 | 91 ± 4 | 116 ± 4 | 100 ± 2 | 103 ± 1 | – | – | – | – | – | – | – | – |
| CC(C)CC(=O)C(=O)O [α-ketoisocaproic acid] | 99 ± 2 | < 10 | < 10 | < 10 | 104 ± 2 | 106 ± 6 | 102 ± 4 | 102 ± 2 | – | – | – | – | – | – | – | – |
| CSCCC(=O)C(=O)O [4-methylthio-2-oxobutyric acid] | 97 ± 1 | < 10 | < 10 | < 10 | 96 ± 1 | 99 ± 5 | 98 ± 3 | 102 ± 2 | – | – | – | – | – | – | – | – |
| O=C(O)CC(O)(CC(=O)O)C(=O)O [DL-citric acid] | – | – | – | – | – | – | – | – | 115 ± 25 | < 10 | < 10 | < 10 | 94 ± 4 | 122 ± 14 | 101 ± 3 | 103 ± 3 |
| O=C(O)CCC(O)C(=O)O (racemic) [DL-2-hydroglutaric acid] | 89 ± 5 | < 10 | < 10 | < 10 | 95 ± 4 | 98 ± 8 | 95 ± 3 | 94 ± 2 | – | – | – | – | – | – | – | – |
